Where two headings read alike, the source gives them in different places.
What was measured:
[1] = biological target: T1, E. coli GroEL/ES (Escherichia coli, UniProt P0A6F5); experiment: GroEL/ES-mediated dRho refolding assay; assay type: biochemical
T1 construct: made in house; host or cells: GroEL in NEB 5-alpha E. coli; GroES in E. coli BL21 (DE3)
Method: Evaluating compounds for inhibition in the GroEL/ES-mediated dRho refolding assay. Reagent preparation: For this assay, five primary reagent stocks were prepared: 1) GroEL/ES-dRho binary complex stock; 2) ATP initiation stock; 3) thiocyanate enzymatic assay stock; 4) formaldehyde quench stock; 5) ferric nitrate reporter stock. Denatured rhodanese (dRho) was prepared by 3-fold dilution of rhodanese (Roche product #R^1756, diluted to 10 mg/mL with H2O) with denaturant buffer (12 M Urea, 50 mM Tris-HCl, pH 7.4, and 10 mM DTT). Rhodanese was completely denatured by incubating at room temperature for >45 min. The binary complex solution was prepared by slowly adding the dRho stock to a stirring stock of concentrated GroEL in modified folding buffer (50 mM Tris-HCl, pH 7.4, 50 mM KCl, 10 mM MgCl2, 5 mM Na2S2O3, and 1 mM DTT). The solution was centrifuged at 16,000×g for 5 minutes, and the supernatant was collected and added to a solution of GroES in modified folding buffer to give final protein concentrations of 100 nM GroEL, 120 nM GroES, and 80 nM dRho. The binary complex stock was prepared immediately prior to use. For the ATP initiation stock, ATP solid was diluted into modified folding buffer to a final concentration of 2.0 mM. The thiocyanate enzymatic assay stock was prepared to contain 70 mM KH2PO4, 80 mM KCN, and 80 mM Na2S2O3 in water. The formaldehyde quench solution contained 30% formaldehyde in water.
Assay Protocol: First, 10 μL aliquots of the GroEL/ES-dRho complex stock were dispensed into clear, flat-bottom 384-well polystyrene plates. […] After incubating for 40 minutes at 37° C. for the refolding cycle, 30 μL of the thiocyanate enzymatic assay stock was added and incubated for 60 min at room temperature for the refolded rhodanese enzymatic reporter reaction. The reporter reaction was quenched by adding 10 μL of the formaldehyde quench stock, and then 40 μL of the ferric nitrate reporter stock was added to quantify the amount of thiocyanate produced during the enzymatic reporter reaction, which is proportional to the amount of dRho refolded by GroEL/ES. After incubating at room temperature for 15 min, the absorbance by Fe(SCN)3 was measured at 460 nm using a Molecular Devices SpectraMax Plus384 microplate reader. A second set of baseline control plates were prepared analogously, but without GroEL/ES-dRho protein binary solution, to correct for possible interference from compound absorbance or turbidity. […] Results presented represent the averages of IC50 values obtained from at least four replicates.
Evaluating compounds for inhibition in the GroEL/ES-mediated dRho refolding assay. All compounds were evaluated for inhibiting E. coli GroEL/ES-mediated refolding of the denatured Rho reporter enzyme as per our previously reported procedure. Results presented represent the averages of IC50 values obtained from at least four replicates.

[2] = biological target: T2, native MDH (Sus scrofa, UniProt P00346); experiment: native MDH activity counter-screen in the presence of E. coli NfsB nitroreductase; assay type: biochemical, pig
T2 sequence (P00346 25-338): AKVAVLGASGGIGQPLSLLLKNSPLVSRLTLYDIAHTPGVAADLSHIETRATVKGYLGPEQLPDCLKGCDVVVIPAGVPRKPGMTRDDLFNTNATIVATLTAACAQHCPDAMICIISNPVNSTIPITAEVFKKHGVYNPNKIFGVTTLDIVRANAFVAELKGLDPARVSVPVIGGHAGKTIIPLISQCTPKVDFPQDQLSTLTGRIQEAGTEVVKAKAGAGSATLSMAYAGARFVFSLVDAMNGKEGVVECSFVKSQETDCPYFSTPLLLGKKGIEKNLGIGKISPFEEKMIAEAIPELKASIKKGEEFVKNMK
Method: Evaluating compounds for inhibition in the GroEL/ES-mediated dMDH refolding assay and native MDH activity counter-screen in the presence of E. coli NfsB nitroreductase. These assays were performed nearly identically to those mentioned above, but with a couple distinct modifications. […] The remainder of the assay was conducted as in our standard protocol where no NfsB nitroreductase was present. […] Results presented represent the averages of IC50 values obtained from at least four replicates in each assay.

[3] = with E. coli NfsB nitroreductase, read-out: Native MDH Activity w/NfsB IC50
[4] = read-out: GroEL/ES-dRho Refolding IC50

T1 sequence (P0A6F5 2-548): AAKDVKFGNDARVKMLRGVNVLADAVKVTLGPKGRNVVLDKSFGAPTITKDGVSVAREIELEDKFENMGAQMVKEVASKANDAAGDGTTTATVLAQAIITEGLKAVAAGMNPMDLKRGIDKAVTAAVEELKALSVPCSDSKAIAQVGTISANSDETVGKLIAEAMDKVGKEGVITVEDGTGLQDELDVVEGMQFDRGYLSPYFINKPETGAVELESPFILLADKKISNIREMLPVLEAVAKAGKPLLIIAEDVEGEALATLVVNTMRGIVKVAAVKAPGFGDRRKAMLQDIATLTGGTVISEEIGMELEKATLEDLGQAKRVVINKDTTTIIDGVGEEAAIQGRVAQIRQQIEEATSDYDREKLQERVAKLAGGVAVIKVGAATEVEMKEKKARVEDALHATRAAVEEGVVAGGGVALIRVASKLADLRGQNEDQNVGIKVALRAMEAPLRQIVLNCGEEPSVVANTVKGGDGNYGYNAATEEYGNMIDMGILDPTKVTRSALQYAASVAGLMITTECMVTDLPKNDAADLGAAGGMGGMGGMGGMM

SMILES	IC50 [1] [µM]	IC50 [2, 3] [µM]	IC50 [1, 4] [µM]	IC50 [2] [µM]
O=C(N/N=C/c1ccc(O)c2ncccc12)c1ccccc1Oc1ccccc1 [Compound 10, N′-((8-hydroxyquinolin-5-yl)methylene)-2-phenoxybenzohydrazide]	4.5	> 56		
O=C(N/N=C/c1ccc(O)c2ncccc12)c1ccc(NS(=O)(=O)c2cccs2)cc1 [Compound 13, N-(4-(2-((8-hydroxyquinolin-5-yl)methylene)hydrazine-1-carbonyl)phenyl)thiophene-2-sulfonamide]	0.81	> 56		
CN(C)c1ccc(C(=O)N/N=C/c2ccc(O)c3ncccc23)cc1 [Compound 8, 4-(dimethylamino)-N′-((8-hydroxyquinolin-5-yl)methylene)benzohydrazide]	7.9	> 56		
COc1ccc(C(=O)N/N=C/c2cccc3ncccc23)cc1 [Compound 31, 4-methoxy-N′-(quinolin-5-ylmethylene)benzohydrazide]	> 250	> 56		
COc1ccc(C(=O)N/N=C/c2ccc(O)c3ncccc23)cc1 [Compound 1, N′-((8-hydroxyquinolin-5-yl)methylene)-4-methoxybenzohydrazide]		> 56		
O=C(N/N=C/c1ccc(O)c2ncccc12)c1cccc2ccccc12 [Compound 9, N′-((8-hydroxyquinolin-5-yl)methylene)-1-naphthohydrazide]	2.1	> 56		
CCN(CC)S(=O)(=O)c1cccc(C(=O)N/N=C/c2ccc(O)c3ncccc23)c1 [Compound 12, N,N-diethyl-3-(2-((8-hydroxyquinolin-5-yl)methylene)hydrazine-1-carbonyl)benzenesulfonamide]	10	> 56		
COc1ccc(C(=O)N/N=C/c2ccc([N+](=O)[O-])o2)cc1 [Compound 20, 4-methoxy-N′-((5-nitrofuran-2-yl)methylene)benzohydrazide]	108			
CCN(CC)S(=O)(=O)c1cccc(C(=O)N/N=C/c2ccc([N+](=O)[O-])o2)c1 [Compound 25, N,N-diethyl-3-(2-((5-nitrofuran-2-yl)methylene)hydrazine-1-carbonyl)benzenesulfonamide]	100	> 56		
O=C(N/N=C/c1ccc([N+](=O)[O-])o1)c1cccs1 [Compound 16, N′-((5-nitrofuran-2-yl)methylene)thiophene-2-carbohydrazide]			222	
CN(C)c1ccc(C(=O)N/N=C/c2ccc([N+](=O)[O-])o2)cc1 [Compound 21, 4-(dimethylamino)-N′-((5-nitrofuran-2-yl)methylene)benzohydrazide]			26	
O=C(N/N=C/c1ccc([N+](=O)[O-])o1)c1ccncc1 [Compound 19, N′-((5-nitrofuran-2-yl)methylene)isonicotinohydrazide]	64			
O=C(N/N=C/c1ccc([N+](=O)[O-])o1)c1ccc(NS(=O)(=O)c2cccs2)cc1 [Compound 26, N-(4-(2-((5-nitrofuran-2-yl)methylene)hydrazine-1-carbonyl)phenyl)thiophene-2-sulfonamide]	62	> 56		
O=C(N/N=C/c1ccc(O)c2ncccc12)c1ccccc1 [Compound 5, N′-((8-hydroxyquinolin-5-yl)methylene)benzohydrazide]	176	> 56		
O=Cc1ccc([N+](=O)[O-])o1 [Compound 41, reference compound]	31	> 56		
O=C(N/N=C/c1cccc2ccccc12)c1ccccc1 [Compound 34, N′-(naphthalen-1-ylmethylene)benzohydrazide]	209	> 56		
O=[N+]([O-])c1ccc(O)c2ncccc12 [Nitroxoline, reference compound]	6.4	> 56		

SMILES	IC50 [1] [µM]	IC50 [2, 3] [µM]	IC50 [1, 4] [µM]	IC50 [2] [µM]
O=C(N/N=C/c1ccc(O)c2ncccc12)c1cccs1 [Compound 3, N′-((8-hydroxyquinolin-5-yl)methylene)thiophene-2-carbohydrazide]	38	> 56		
O=C(N/N=C/c1ccc(O)c2ncccc12)c1ccc(O)cc1 [Compound 7, 4-hydroxy-N′-((8-hydroxyquinolin-5-yl)methylene)benzohydrazide]	9	> 56		
O=C(N/N=C/c1ccc([N+](=O)[O-])o1)c1ccc(O)cc1 [Nifuroxazide, reference compound]	133			> 56
O=C(N/N=C/c1ccc(O)cc1)c1ccccc1 [Compound 36, N′-(4-hydroxybenzylidene)benzohydrazide]	> 250	> 56		
COc1ccc(C(=O)N/N=C/c2ccccc2)cc1 [Compound 37, N′-benzylidene-4-methoxybenzohydrazide]	> 250	> 56		
CCOc1ccc(S(=O)(=O)Nc2ccc(C(=O)N/N=C/c3ccc(O)c4ncccc34)cc2)cc1 [Compound 15, 4-ethoxy-N-(4-(2-((8-hydroxyquinolin-5-yl)methylene)hydrazine-1-carbonyl)phenyl)benzenesulfonamide]	1.4	> 56		
COc1ccc(C(=O)NN)cc1 [Compound 42, reference compound]	> 250	> 56		
COc1ccc(C(=O)N/N=C/c2ccc(O)c3ccccc23)cc1 [Compound 29, N′-((4-hydroxynaphthalen-1-yl)methylene)-4-methoxybenzohydrazide]	117	> 56		
O=C1CN(/N=C/c2ccc([N+](=O)[O-])o2)C(=O)N1 [Nitrofurantoin, reference compound]	> 250			
COc1ccc(C(=O)N/N=C/c2ccco2)cc1 [Compound 39, N′-(furan-2-ylmethylene)-4-methoxybenzohydrazide]	> 250	> 56		
O=C1CN(/N=C/c2ccc(O)c3ncccc23)C(=O)N1 [Compound 2, 1-(((8-hydroxyquinolin-5-yl)methylene)amino)imidazolidine-2,4-dione]	86.4	> 56		
O=C(N/N=C/c1ccc([N+](=O)[O-])o1)c1cccc(Oc2ccccc2)c1 [Compound 24, N′-((5-nitrofuran-2-yl)methylene)-3-phenoxybenzohydrazide]	50	> 56		
O=C(N/N=C/c1ccc([N+](=O)[O-])o1)c1ccccc1 [Compound 18, N′-((5-nitrofuran-2-yl)methylene)benzohydrazide]	100			
O=C(N/N=C/c1ccc(O)c2ncccc12)c1cccc(Oc2ccccc2)c1 [Compound 11, N′-((8-hydroxyquinolin-5-yl)methylene)-3-phenoxybenzohydrazide]	7.8	> 56		
O=C(N/N=C/c1ccc(O)c2ccccc12)c1ccccc1 [Compound 30, N′-((4-hydroxynaphthalen-1-yl)methylene)benzohydrazide]	216	> 56		
O=C(N/N=C/c1ccc([N+](=O)[O-])o1)c1ccccc1Oc1ccccc1 [Compound 23, N′-((5-nitrofuran-2-yl)methylene)-2-phenoxybenzohydrazide]		> 56		
O=C(N/N=C/c1ccc([N+](=O)[O-])o1)c1ccc(Cl)s1 [Compound 17, 5-chloro-N′-((5-nitrofuran-2-yl)methylene)thiophene-2-carbohydrazide]			60	

Source: patent publication US20220009914A1, “Analogs of Nitrofuran Antibiotics to Combat Resistance” (The Trustees of Indiana University, priority 2020, published 2022)
